Laboratory results taken from PubChem BioAssay AID2060335 (Molecular Pharmacology Branch, DTP, NCI, 2025).

Test system: DU-145 multicell spheroids with HUVEC/MSC, viability
Test: Anticancer human tumor DU-145 cell line growth inhibition [IpAb];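 also: spheroids exposed to agents for seven days before measurement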;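 as to viability, T/C: percent of DMSO vehicle control viability so 100% = untreated level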
Settings: for IC50: curve of first compound; for viability, T/C: stronger effect = lower value
In short: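 Multi-cell spheroids of 60% tumour cells, 25% HUVEC and 15% MSC in ultra-low-attachment U-bottom wells, treated with agents combined with ipatasertib or abemaciclib. Half-log ranges top out near clinical Cmax, or 10 microM when Cmax is unknown.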

[1] = second compound 0.1 µM, first compound 0.0316 µM
[2] = second compound 0.1 µM, first compound 0.1 µM
[3] = second compound 0.316 µM, first compound 0.0316 µM
[4] = second compound 0.316 µM, first compound 0.1 µM
[5] = second compound 1 µM, first compound 0.0316 µM
[6] = second compound 1 µM, first compound 0.1 µM
[7] = second compound 3.16 µM, first compound 0.0316 µM
[8] = second compound 3.16 µM, first compound 0.1 µM
[9] = second compound 10 µM, first compound 0.0316 µM
[10] = second compound 10 µM, first compound 0.1 µM

For C=CC(=O)N1CCN(c2nc(=O)n(-c3c(C)ccnc3C(C)C)c3nc(-c4c(O)cccc4F)c(F)cc23)C(C)C1 (stereo not given) + CC(C)NCC(C(=O)N1CCN(c2ncnc3c2C(C)CC3O)CC1)c1ccc(Cl)cc1, the IC50 (second compound 0.1 µM) was 8760 nM, the IC50 (second compound 0.316 µM) was 4170 nM and the IC50 (second compound 1 µM) was < 31.6 nM. The IC50 (second compound 3.16 µM) was < 31.6 nM, the IC50 (second compound 10 µM) was < 31.6 nM and the viability, T/C [1] was 81.3%. It also gave a viability, T/C [2] of 87.7%, a viability, T/C (second compound 0.1 µM, first compound 0.316 µM) of 86.1% and a viability, T/C (second compound 0.1 µM, first compound 1 µM) of 92%. For the same compound, the viability, T/C (second compound 0.1 µM, first compound 3.16 µM) was 82.9%, the viability, T/C (second compound 0.1 µM, first compound 10 µM) was 45.5% and the viability, T/C [3] was 53.9%. It also gave a viability, T/C [4] of 55%, a viability, T/C (second compound 0.316 µM, first compound 0.316 µM) of 59.1% and a viability, T/C (second compound 0.316 µM, first compound 1 µM) of 59.2%. The viability, T/C (second compound 0.316 µM, first compound 3.16 µM) was 52.9%, the viability, T/C (second compound 0.316 µM, first compound 10 µM) was 37.8% and the viability, T/C [5] was 34%. For the same compound, the viability, T/C [6] was 35.5%, the viability, T/C (second compound 1 µM, first compound 0.316 µM) was 37.6% and the viability, T/C (second compound 1 µM, first compound 1 µM) was 37.4%. It also gave a viability, T/C (second compound 1 µM, first compound 3.16 µM) of 34.5%, a viability, T/C (second compound 1 µM, first compound 10 µM) of 28.3% and a viability, T/C [7] of 22.4%. It also gave a viability, T/C [8] of 21.9%, a viability, T/C (second compound 3.16 µM, first compound 0.316 µM) of 27.5% and a viability, T/C (second compound 3.16 µM, first compound 1 µM) of 24.4%. The viability, T/C (second compound 3.16 µM, first compound 3.16 µM) was 24.5%, the viability, T/C (second compound 3.16 µM, first compound 10 µM) was 20.7% and the viability, T/C [9] was 19.5%. The viability, T/C [10] was 19.3%, the viability, T/C (second compound 10 µM, first compound 0.316 µM) was 18.5% and the viability, T/C (second compound 10 µM, first compound 1 µM) was 21.6%. The viability, T/C (second compound 10 µM, first compound 3.16 µM) was 19.9% and the viability, T/C (second compound 10 µM, first compound 10 µM) was 17.1%.
CC(C)(C)c1cnc(CSc2cnc(NC(=O)C3CCNCC3)s2)o1 + CC(C)NCC(C(=O)N1CCN(c2ncnc3c2C(C)CC3O)CC1)c1ccc(Cl)cc1 was tested, and the IC50 (second compound 0.1 µM) was 107 nM, the IC50 (second compound 0.316 µM) was 81.5 nM and the IC50 (second compound 1 µM) was < 9.49 nM. The IC50 (second compound 3.16 µM) was < 9.49 nM, the IC50 (second compound 10 µM) was < 9.49 nM and the viability, T/C (second compound 0.1 µM, first compound 0.00949 µM) was 89.1%. For the same compound, the viability, T/C (second compound 0.1 µM, first compound 0.03 µM) was 92%, the viability, T/C (second compound 0.1 µM, first compound 0.0949 µM) was 54.7% and the viability, T/C (second compound 0.1 µM, first compound 0.3 µM) was 10%. It also gave a viability, T/C (second compound 0.1 µM, first compound 0.949 µM) of 6.37%, a viability, T/C (second compound 0.1 µM, first compound 3 µM) of 5.76% and a viability, T/C (second compound 0.316 µM, first compound 0.00949 µM) of 60.1%. For the same compound, the viability, T/C (second compound 0.316 µM, first compound 0.03 µM) was 60.2%, the viability, T/C (second compound 0.316 µM, first compound 0.0949 µM) was 48.5% and the viability, T/C (second compound 0.316 µM, first compound 0.3 µM) was 8.51%. For the same compound, the viability, T/C (second compound 0.316 µM, first compound 0.949 µM) was 6.34%, the viability, T/C (second compound 0.316 µM, first compound 3 µM) was 5.65% and the viability, T/C (second compound 1 µM, first compound 0.00949 µM) was 33.1%. The viability, T/C (second compound 1 µM, first compound 0.03 µM) was 38.5%, the viability, T/C (second compound 1 µM, first compound 0.0949 µM) was 31.7% and the viability, T/C (second compound 1 µM, first compound 0.3 µM) was 7.62%. For the same compound, the viability, T/C (second compound 1 µM, first compound 0.949 µM) was 5.87%, the viability, T/C (second compound 1 µM, first compound 3 µM) was 5.13% and the viability, T/C (second compound 3.16 µM, first compound 0.00949 µM) was 23.1%. For the same compound, the viability, T/C (second compound 3.16 µM, first compound 0.03 µM) was 25.1%, the viability, T/C (second compound 3.16 µM, first compound 0.0949 µM) was 24% and the viability, T/C (second compound 3.16 µM, first compound 0.3 µM) was 8.35%. The viability, T/C (second compound 3.16 µM, first compound 0.949 µM) was 5.85%, the viability, T/C (second compound 3.16 µM, first compound 3 µM) was 5.4% and the viability, T/C (second compound 10 µM, first compound 0.00949 µM) was 18.1%. The viability, T/C (second compound 10 µM, first compound 0.03 µM) was 21.6%, the viability, T/C (second compound 10 µM, first compound 0.0949 µM) was 15.7% and the viability, T/C (second compound 10 µM, first compound 0.3 µM) was 6.3%. For the same compound, the viability, T/C (second compound 10 µM, first compound 0.949 µM) was 5.1% and the viability, T/C (second compound 10 µM, first compound 3 µM) was 4.5%.
With Cn1ncnc1[C@H]1c2n[nH]c(=O)c3cc(F)cc(c23)N[C@@H]1c1ccc(F)cc1 + CC(C)NCC(C(=O)N1CCN(c2ncnc3c2C(C)CC3O)CC1)c1ccc(Cl)cc1 the IC50 (second compound 0.1 µM) was > 100 nM, the IC50 (second compound 0.316 µM) was 46.1 nM and the IC50 (second compound 1 µM) was < 0.316 nM. The IC50 (second compound 3.16 µM) was < 0.316 nM, the IC50 (second compound 10 µM) was < 0.316 nM and the viability, T/C (second compound 0.1 µM, first compound 0.000316 µM) was 85.8%. For the same compound, the viability, T/C (second compound 0.1 µM, first compound 0.001 µM) was 81.1%, the viability, T/C (second compound 0.1 µM, first compound 0.00316 µM) was 83.2% and the viability, T/C (second compound 0.1 µM, first compound 0.01 µM) was 82.1%. It also gave a viability, T/C [1] of 77.9%, a viability, T/C [2] of 73.4% and a viability, T/C (second compound 0.316 µM, first compound 0.000316 µM) of 56%. It also gave a viability, T/C (second compound 0.316 µM, first compound 0.001 µM) of 57.8%, a viability, T/C (second compound 0.316 µM, first compound 0.00316 µM) of 51.9% and a viability, T/C (second compound 0.316 µM, first compound 0.01 µM) of 53.8%. For the same compound, the viability, T/C [3] was 51.8%, the viability, T/C [4] was 47.1% and the viability, T/C (second compound 1 µM, first compound 0.000316 µM) was 34.4%. For the same compound, the viability, T/C (second compound 1 µM, first compound 0.001 µM) was 36.3%, the viability, T/C (second compound 1 µM, first compound 0.00316 µM) was 33.5% and the viability, T/C (second compound 1 µM, first compound 0.01 µM) was 33%. The viability, T/C [5] was 34.3%, the viability, T/C [6] was 33.6% and the viability, T/C (second compound 3.16 µM, first compound 0.000316 µM) was 24%. It also gave a viability, T/C (second compound 3.16 µM, first compound 0.001 µM) of 24.8%, a viability, T/C (second compound 3.16 µM, first compound 0.00316 µM) of 23.9% and a viability, T/C (second compound 3.16 µM, first compound 0.01 µM) of 21.9%. For the same compound, the viability, T/C [7] was 24.5%, the viability, T/C [8] was 23.3% and the viability, T/C (second compound 10 µM, first compound 0.000316 µM) was 17.7%. The viability, T/C (second compound 10 µM, first compound 0.001 µM) was 20.1%, the viability, T/C (second compound 10 µM, first compound 0.00316 µM) was 19.6% and the viability, T/C (second compound 10 µM, first compound 0.01 µM) was 19.1%. The viability, T/C [9] was 18.1% and the viability, T/C [10] was 19.5%.
